{"source": "patent US10329626B2", "about": "“NOL3 is a predictor of patient outcome” (priority 2009, dated 2019)", "key": {"NOL3 mRNA": {"test_system": "NOL3 mRNA", "experiment": "Independent quantitative RT-PCR analysis of NOL3", "type": "cell-based"}, "Akt": {"test_system": "Akt", "experiment": "Akt (Ser473) and Bad phosphorylation in LN827 cells (immunoblot)", "type": "cell-based"}, "BCL-2 family of proteins": {"test_system": "BCL-2 family of proteins", "experiment": "Expression of BCL-2 family proteins in LN827 cells (Western blot)", "type": "cell-based"}, "[1]": {"test_system": "genes in the apoptotic pathway", "from_the_text": "Table 1 depicts data obtained from mRNA microanalysis for expression of genes in the apoptotic pathway."}, "caspase 3/7": {"test_system": "caspase 3/7", "experiment": "Caspase 3/7 activation in cells", "type": "cell-based", "from_the_text": "Next we tested blockade of the growth factor receptor EGFR with the dual EGFR and HER2 kinase inhibitor PKI166 (Bruns et al., 2000)."}, "LN827 cells [2]": {"test_system": "LN827 cells", "experiment": "LN827 cell growth", "type": "cell-based"}, "caspase-3": {"test_system": "caspase-3", "experiment": "Activated caspase-3 in lysates of treated tumor neurospheres (immunoblot)", "type": "cell-based, human", "details": "tumor neurospheres treated for 72 hours"}, "[3]": {"test_system": "cytoplasmic cytochrome c and Smac/Diablo", "experiment": "Mitochondrial outer membrane permeabilization: cytoplasmic cytochrome c and Smac/Diablo in LN827 cells", "type": "cell-based", "from_the_text": "Multiple upstream pro-apoptotic signals converge at the level of the mitochondria, resulting in mitochondrial outer membrane permeabilization (MOMP) and release of the pro-apoptotic mediators cytochrome c and Smac/Diablo (FIG. 1A)."}, "NOL3 protein": {"test_system": "NOL3 protein", "experiment": "Western blot of NOL3 expression", "type": "cell-based", "details": "over time"}, "LN827 and U87 cells": {"test_system": "LN827 and U87 cells", "experiment": "Glioma cell growth, cell line not given (figures: LN827 and U87)", "type": "cell-based"}, "PDGFR": {"test_system": "PDGFR", "experiment": "PDGFR abundance and activation state in LN827 cells (blot)", "type": "cell-based"}, "[4]": {"test_system": "primary human glioma tumor neurospheres", "experiment": "Primary human glioma tumor neurosphere numbers", "type": "cell-based", "details": "neurospheres derived from 2 different patients with GBM", "protocol": "The treatment combination was assayed in primary human glioma tumor neurospheres."}, "Erk 1/2": {"test_system": "Erk 1/2", "experiment": "Erk 1/2 phosphorylation in LN827 cells (Western blot)", "details": "six hours", "protocol": "Alternative mechanisms by which growth factor inhibition may lead to activation of the apoptotic pathway and mitochondrial permeabilization in tumor cells, e.g., gliomas, were also tested."}, "LN827 cells [5]": {"test_system": "LN827 cells", "experiment": "Apoptosis in LN827 cells after siRNA knockdown of NOL3", "type": "cell-based"}, "LN827 cells [6]": {"test_system": "LN827 cells", "experiment": "Orthotopic glioma model, LN827 cells implanted into brains of mice, bioluminescence imaging", "type": "in vivo", "details": "AMN107 100 mg/kg per day, LBW242 50 mg/kg twice per day, oral gavage; established tumors"}, "U87 cells": {"test_system": "U87 cells", "experiment": "U87 cell growth", "type": "cell-based", "details": "single agent at concentrations of up to 50 μM"}, "tumor cells": {"test_system": "tumor cells", "experiment": "Apoptotic cells staining positive with Annexin-V", "type": "cell-based"}, "[7]": {"experiment": "Tissue concentrations of LBW242 after daily parenteral dosing", "type": "in vivo, mice", "details": "50 mg/kg/d parenterally; for concentration at 14 days: mouse, other: parenteral, after 14 days of daily dosing", "from_the_text": "For treatment of intracranial tumors, the blood-brain barrier (BBB) is an impediment to drug bioavailability. […]."}}, "note": "Where two headings read alike, the source gives them in different places."}
{"smiles": "Cc1ccc(NC(=O)c2ccc(CN3CCN(C)CC3)cc2)cc1Nc1nccc(-c2cccnc2)n1", "note": "[imatinib]", "values": [{"measurement": "NOL3 mRNA expression", "setting": "NOL3 mRNA", "result": "significantly reduced NOL3 mRNA expression"}, {"measurement": "Akt phosphorylation", "setting": "Akt", "result": "did not inhibit Akt phosphorylation"}, {"measurement": "downstream phosphorylation of Bad", "setting": "Akt", "result": "nor did it inhibit the downstream phosphorylation of Bad"}, {"measurement": "expression of anti- or pro-apoptotic members of the BCL-2 family of proteins", "setting": "BCL-2 family of proteins", "result": "A significant change in expression was not observed"}, {"measurement": "NOL3 expression in individual multi-well screens", "setting": "[1]", "result": "downregulate NOL3 in 7 individual multi-well screens"}, {"measurement": "change in mRNA expression of pro- and anti-apoptotic mediators", "setting": "[1]; imatinib 10 μM", "result": "significant change in the expression of only one gene tested: NOL3"}, {"measurement": "caspase 3/7 activation", "setting": "caspase 3/7", "result": "no activation of caspase 3 or 7"}, {"measurement": "effect on cell growth", "setting": "LN827 cells [2]; imatinib at 10 μM, LN827 cells", "result": "no effect on cell growth"}, {"measurement": "concentrations at which inhibition of LN827 cell growth was observed", "setting": "LN827 cells [2]; mono-therapy", "result": "> 20", "unit": "µM"}, {"measurement": "caspase-3 activation", "setting": "caspase-3", "result": "no appreciable caspase-3 activation"}, {"measurement": "concentration at which MOMP was observed", "setting": "[3]; LN827 cells", "result": 2.5, "unit": "µM"}, {"measurement": "NOL3 protein levels", "setting": "NOL3 protein", "result": "correlative decrease in NOL3 protein levels"}, {"measurement": "effect on cells over four days of treatment", "setting": "LN827 and U87 cells", "result": "only mild cytostasis"}, {"measurement": "doses at which cell growth was inhibited", "setting": "LN827 and U87 cells; single agent", "result": "> 10", "unit": "µM"}, {"measurement": "overall abundance of PDGFR", "setting": "PDGFR; LN827 cells", "result": "no effect"}, {"measurement": "activation state of PDGFR", "setting": "PDGFR; imatinib at 2.5 uM in LN827 cells", "result": "almost completely abolished"}, {"measurement": "neurosphere numbers", "setting": "[4]", "result": "stand-alone activity"}, {"measurement": "phosphorylation of Erk 1/2", "setting": "Erk 1/2", "result": "did not inhibit phosphorylation of Erk 1/2"}]}
{"smiles": "C[C@@H](Nc1ncnc2[nH]c(-c3ccc(O)cc3)cc12)c1ccccc1", "note": "[PKI166]", "values": [{"measurement": "caspase 3/7 activation", "setting": "caspase 3/7", "result": "increased levels of caspase 3/7 activation"}]}
{"smiles": "COc1cc([C@@H]2c3cc4c(cc3[C@@H](O[C@@H]3O[C@@H]5CO[C@@H](C)O[C@H]5[C@H](O)[C@H]3O)[C@H]3COC(=O)[C@H]23)OCO4)cc(OC)c1O", "note": "[etoposide]", "values": [{"measurement": "effect of NOL3 depletion on the induction of apoptosis", "setting": "LN827 cells [5]; NOL3 siRNA knockdown", "result": "no effect on the induction of apoptosis"}]}
{"smiles": "CNC(C)C(=O)NC(C(=O)N1CCC2CCN(CCc3ccccc3)CC21)C1CCCCC1", "note": "(centres unmarked) [LBW242, N-[1-cyclohexyl-2-oxo-2-(6-phenethyl-octahydro-pyrrolo[2,3-c]pyridin-1-yl)-ethyl]-2-methylamino-propionamide]", "values": [{"measurement": "tumor growth (tumor burden)", "setting": "LN827 cells [6]", "result": "no appreciable effect on tumor growth"}, {"measurement": "effect on the growth of U87 cells", "setting": "U87 cells", "result": "no effect"}, {"measurement": "apoptotic cells staining positive with Annexin-V", "setting": "tumor cells", "result": "minimal change in basal apoptotic level"}, {"measurement": "crossing of the blood-brain barrier", "setting": "[7]", "result": "able to cross even the intact BBB"}, {"measurement": "concentration at 14 days", "setting": "[7]; SK-OV-3 tumor-bearing nude mice, read-out: long-term steady-state concentration in tumors", "result": "> 60", "unit": "µM"}, {"measurement": "concentration at 14 days", "setting": "[7]; nude, brain, read-out: tissue concentration in normal brain", "result": "~25", "unit": "µM"}, {"measurement": "effect on the growth of LN827 cells", "setting": "LN827 cells [2]; single agent at concentrations of up to 50 μM, data not shown", "result": "no effect"}, {"measurement": "caspase-3 activation", "setting": "caspase-3", "result": "no appreciable caspase-3 activation"}, {"measurement": "cellular apoptosis", "setting": "LN827 cells [5]; depletion of NOL3 (siRNA) combined with LBW242, LN827 cells", "result": "significant increase in cellular apoptosis"}, {"measurement": "cytochrome c or Smac/Diablo levels", "setting": "[3]; as a single agent or in combination with imatinib", "result": "no appreciable effect"}, {"measurement": "effect on cells over four days of treatment", "setting": "LN827 and U87 cells", "result": "only mild cytostasis"}, {"measurement": "PDGFR abundance or activity", "setting": "PDGFR; LN827 cells", "result": "no effect"}, {"measurement": "neurosphere numbers", "setting": "[4]", "result": "stand-alone activity"}]}
{"smiles": "Cc1cn(-c2cc(NC(=O)c3ccc(C)c(Nc4nccc(-c5cccnc5)n4)c3)cc(C(F)(F)F)c2)cn1", "note": "[AMN107]", "values": [{"measurement": "apoptotic cells staining positive with Annexin-V", "setting": "tumor cells", "result": "small increase in apoptosis"}, {"measurement": "caspase-3 activation", "setting": "caspase-3", "result": "minimal activation"}]}
